Measurements published in the supplement of paper PMC4862054.
Several values for one entry are separate records, joined by “and”; a condition that tells them apart may be missing. Equal entries are not always repeated.

Key:
[1] = test system: BT-549; test: normalised response (% of control), CellTiter-Glo; higher = more viable cells (100 = DMSO, 0 = benzethonium chloride kill control); conditions: incubation time: 72 h
Method in brief: (§1)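 Each entry is the normalised signal at a single concentration within a series. The series comprised 5 concentrations in 10-fold steps over a compound-specific 10,000-fold range, placed in 384-well plates into which breast cancer cell lines were seeded as 20 µl suspension and incubated 72 h. CellTox Green (485/520 nm) fluorescence and then CellTiter-Glo luminescence were read, with signals normalised per plate to 0.1 % DMSO (100) and a positive kill control (0).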

[2] = test system: MFM-223; test: as above; conditions: incubation time: 72 h
Method in brief: as §1

[3] = test system: HCC1599; test: as above; conditions: incubation time: 72 h
Method in brief: as §1

[4] = test system: MDA-MB-436; test: as above; conditions: incubation time: 72 h
Method in brief: as §1

[5] = test system: MCF-10A; test: as above; conditions: incubation time: 72 h
Method in brief: as §1

[6] = test system: SK-BR-3; test: as above; conditions: incubation time: 72 h
Method in brief: as §1

[7] = test system: HCC1143; test: as above; conditions: incubation time: 72 h
Method in brief: as §1

[8] = test system: CAL-51; test: normalised viability (% of control), CellTiter-Blue; higher = more viable cells (about 100 = DMSO control); conditions: incubation time: 72 h
Procedure: (§2)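 DSRT, CellTiter-Blue viability, 72 h incubation. Signal is normalised to DMSO and benzethonium chloride controls. Value is the normalised response at dose 7.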

[9] = test system: MDA-MB-453; test: as above; conditions: incubation time: 72 h
Procedure: as §2

[10] = test system: HDQ-P1; test: as above; conditions: incubation time: 72 h
Procedure: as §2

[11] = test system: CAL-85-1; test: as above; conditions: incubation time: 72 h
Procedure: as §2

[12] = test system: DU-4475; test: as above; conditions: incubation time: 72 h
Procedure: as §2

[13] = test system: CAL-148; test: as above; conditions: incubation time: 72 h
Procedure: as §2

[14] = test system: BT-549; conditions: 72 h
Method in brief: (§3)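 Rows with a drug sensitivity score of zero were dropped, and EC50 was taken from the fitted percent-inhibition dose-response curve, censored at the highest concentration. Data were normalised on each plate to vehicle and a positive kill control and checked by Z'-factor. The assay seeded breast cancer cell lines in 20 µl onto 384-well plates pre-loaded with compound in 5 µl medium for 72 h, then added 2.5 µl CellTiter-Blue for 2 h at 37 °C and read fluorescence at 560/590 nm.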

[15] = test system: MDA-MB-231; conditions: 72 h
Method in brief: as §3

[16] = test system: CAL-51; conditions: 72 h
Method in brief: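 For viability and cell death testing, 384-well plates carried compound at 5 concentrations in 10-fold steps over a compound-specific 10,000-fold range, and breast cancer cell lines were seeded in 20 µl suspension. After 72 h incubation, cell death was read by CellTox Green fluorescence (485/520 nm) before viability was read by CellTiter-Glo luminescence. EC50 was fitted from the dose-response curves and censored at the top concentration. Normalisation on each plate was to 0.1 % DMSO and a positive kill control.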

SMILES | normalised response [1] [%] | normalised response [2] [%] | normalised response [3] [%] | normalised response [4] [%] | normalised response [5] [%] | normalised response [6] [%] | normalised response [7] [%] | normalised viability [8] | normalised viability [9] | normalised viability [10] [%] | normalised viability [11] | normalised viability [12] | normalised viability [13] | EC50, CellTiter-Blue viability [14] [nM] | EC50, CellTiter-Blue viability [15] [nM] | EC50, CellTiter-Glo [16] [µM]
COC1=C2C[C@@H](C)C[C@H](OC)[C@H](O)[C@@H](C)/C=C(\C)[C@H](OC(N)=O)[C@@H](OC)/C=C\C=C(/C)C(=O)NC(=CC1=O)C2=O [Geldanamycin] (1000 nM) | 81.2 | 40.4 | 99.6 | 64.4 | 99.7 | 87.1 | 102 | 26.2% | 7.25% | 17.8 | 23.7% | 0.05% | 14.5% |  |  | 
CS(=O)(=O)CCNCc1ccc(-c2ccc3ncnc(Nc4ccc(OCc5cccc(F)c5)c(Cl)c4)c3c2)o1 [Lapatinib] (1000 nM) |  |  |  |  |  |  |  | 105% and 94.6% | 38% and 36.7% |  | 66.4% and 66.5% | 94.5% and 86.5% | 82.4% and 94% |  |  | 
Cn1cnc2c(F)c(Nc3ccc(Br)cc3F)c(C(=O)NOCCO)cc21 [MEK-162] (100 nM) | 100 | 102 | 104 | 100 | 49 | 101 | 90.5 | 101% | 112% | 107 | 82.1% | 25.7% | 98.8% |  |  | 
CCOc1cc2ncc(C#N)c(Nc3ccc(OCc4ccccn4)c(Cl)c3)c2cc1NC(=O)/C=C/CN(C)C [Neratinib] (100 nM) | 97.5 | 101 | 102 | 95 | 43.1 | 25 | 98.8 | 92.6% | 76% | 120 | 94.9% | 102% | 101% |  |  | 
COc1ccc(C2=N[C@@H](c3ccc(Cl)cc3)[C@@H](c3ccc(Cl)cc3)N2C(=O)N2CCNC(=O)C2)c(OC(C)C)c1 [Nutlin-3] (1000 nM) | 100 | 104 | 117 | 110 | 102 | 109 | 99.8 | 95.8% | 97.2% | 119 | 88.9% | 94.7% | 91.6% |  |  | 
COC1=CC(c2cc3ccccc3[nH]2)=N/C1=C\c1[nH]c(C)cc1C [Obatoclax] (1000 nM) | 77.3 | 93.7 | 97.1 | 89.7 | 92.8 | 87 | 87.4 | 72.3% | 34% | 41.6 | 57.5% | 78.4% | 78.3% |  |  | 
CC(=O)O[C@H]1C(=O)[C@@]2(C)[C@H]([C@H](OC(=O)c3ccccc3)[C@]3(O)C[C@H](OC(=O)[C@H](O)[C@@H](NC(=O)c4ccccc4)c4ccccc4)C(C)=C1C3(C)C)[C@]1(OC(C)=O)CO[C@@H]1C[C@@H]2O [Paclitaxel] (100 nM) | 15 | 38.2 | 36.2 | 28.1 | 33.5 | 10.2 | 30.7 | 23.4% | 24.8% | 33 | 31.8% | 27.3% | 20.8% |  |  | 
CC(C)(C)c1cc(NC(=O)Nc2ccc(-c3cn4c(n3)sc3cc(OCCN5CCOCC5)ccc34)cc2)no1 [Quizartinib] |  |  |  |  |  |  |  |  |  |  |  |  |  | 259 |  | 
CC(C)(C)c1cc(NC(=O)Nc2ccc(-c3cn4c(n3)sc3cc(OCCN5CCOCC5)ccc34)cc2)no1 [Quizartinib] (100 nM) | 106 | 109 | 111 | 111 | 105 | 105 | 105 | 114% | 96.6% | 95 | 89.6% | 115% | 98.8% |  |  | 
COc1cc(Nc2ncc(F)c(Nc3ccc4c(n3)NC(=O)C(C)(C)O4)n2)cc(OC)c1OC [R406] |  |  |  |  |  |  |  |  |  |  |  |  |  | 1030 | 1040 | 
O=C(c1ccc(OCCN2CCCCC2)cc1)c1c(-c2ccc(O)cc2)sc2cc(O)ccc12 [Raloxifene] (1000 nM) | 102 | 95.6 | 99.8 | 103 | 108 | 105 | 110 | 91.5% | 97.1% | 81.3 | 101% | 86.2% | 112% |  |  | 
Cn1c(=O)c(F)c(Nc2ccc(I)cc2F)c2c(=O)n(C[C@@H](O)CO)cnc21 [TAK-733] (100 nM) | 91.6 | 98.8 | 93 | 97.1 | 38.8 | 117 | 93.5 | 77.7% | 89.1% | 92 | 60.2% | 0.99% | 95% |  |  | 
CCS(=O)(=O)c1cccc(-c2cc(C(=O)NC3CCN(C)CC3)c(C)c3[nH]c4ncc(C)cc4c23)c1 [TAK-901] (100 nM) | 82 | 79.5 | 109 | 97.2 | 80.2 | 106 | 77.2 | 56.5% | 65% | 87.2 | 70.4% | 78.5% | 40.3% |  |  | 
C[C@@H]1CCN(C(=O)CC#N)C[C@@H]1N(C)c1ncnc2[nH]ccc12 [Tofacitinib] |  |  |  |  |  |  |  |  |  |  |  |  |  |  |  | 0.0521
CCCC(CCC)C(=O)O [Valproic acid] |  |  |  |  |  |  |  |  |  |  |  |  |  |  |  | 441
